Data: PubChem BioAssay AID1259411 (Chemical Carcinogenesis Research Information System (CCRIS), 2018)
Calls of active or inactive are those of the source. No rule for the calls is given here.

System: rodent carcinogenicity bioassays, tumor incidence
Test: CCRIS carcinogenicity studies
Outline: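 Archive of carcinogenicity, mutagenicity, tumor promotion and tumor inhibition results drawn from journals, NCI reports and other sources, expert-reviewed; covers 1985-2011 and is no longer updated.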

Structure (SMILES): CCNC(=O)Nc1ncc([N+](=O)[O-])s1
- carcinogen call (Species: MOUSE, Strain/Sex: B6C3F1/FEMALE, Route: ORAL, Dose: 0, 2500, 5000 PPM IN DIET FOR 94 WK (STUDY DURATION: 104 WK), Dose: 0, 2500, 5000 PPM IN DIET FOR 94 WK (STUDY DURATION: 104 WK), Tumor Site: Type of Lesion: LIVER: HEPATOCELLULAR ADENOMA OR CARCINOMA): equivocal
- carcinogen call (Species: MOUSE, Strain/Sex: B6C3F1/MALE, Route: ORAL, Dose: 0, 2500, 5000 PPM IN DIET FOR 94 WK (STUDY DURATION: 104 WK), Dose: 0, 2500, 5000 PPM IN DIET FOR 94 WK (STUDY DURATION: 104 WK), Tumor Site: Type of Lesion: LIVER: HEPATOCELLULAR CARCINOMA OR ADENOMA): active; positive
- carcinogen call (Species: RAT, Strain/Sex: F344/FEMALE, Route: ORAL, Dose: 0, 625, 1250 PPM IN DIET FOR 94 WK (STUDY DURATION: 104 WK), Dose: 0, 625, 1250 PPM IN DIET FOR 94 WK (STUDY DURATION: 104 WK), Tumor Site: Type of Lesion: INTEGUMENTARY SYSTEM (SKIN AND SUBCUTANEOUS TISSUE) AND MAMMARY GLAND: FIBROADENOMA OR CYSTADENOMA (NOS)): active; positive
- carcinogen call (Species: RAT, Strain/Sex: F344/MALE, Route: ORAL, Dose: 0, 625, 1250 PPM IN DIET FOR 94 WK (STUDY DURATION: 104 WK), Dose: 0, 625, 1250 PPM IN DIET FOR 94 WK (STUDY DURATION: 104 WK)): inactive; negative

Structure (SMILES): Nc1ccc(N=Nc2ccccc2)c(N)c1
- carcinogen call (Species: MOUSE, Route: ORAL, Tumor Site: Type of Lesion: HEMATOPOIETIC SYSTEM (LEUKEMIA), LYMPHATIC SYSTEM: LYMPHOMA, LIVER, Tumor Site: Type of Lesion: HEMATOPOIETIC SYSTEM (LEUKEMIA), LYMPHATIC SYSTEM: LYMPHOMA, LIVER): active; positive

Structure (SMILES): Cc1[nH]cnc1CSCCN=C(NC#N)N(C)N=O
- carcinogen call (Species: MOUSE, Strain/Sex: B6C3F1/FEMALE, Route: ORAL, Dose: 0, 18.8, 190 MG/D IN DRINKING WATER FOR LIFE ADMINISTERED TO MICE OF MOTHERS EXPOSED TO SAME DOSES THROUGH PREGNANCY AND, Dose: 0, 18.8, 190 MG/D IN DRINKING WATER FOR LIFE ADMINISTERED TO MICE OF MOTHERS EXPOSED TO SAME DOSES THROUGH PREGNANCY AND): inactive; negative
- carcinogen call (Species: MOUSE, Strain/Sex: B6C3F1/MALE, Route: ORAL, Dose: 0, 18.8, 190 MG/D IN DRINKING WATER FOR LIFE ADMINISTERED TO MICE OF MOTHERS EXPOSED TO SAME DOSES THROUGH PREGNANCY AND, Dose: 0, 18.8, 190 MG/D IN DRINKING WATER FOR LIFE ADMINISTERED TO MICE OF MOTHERS EXPOSED TO SAME DOSES THROUGH PREGNANCY AND): inactive; negative
- carcinogen call (Species: MOUSE, Strain/Sex: C57BL/FEMALE, Route: ORAL, Dose: 0, 18.8, 190 MG/D IN DRINKING WATER BEGINNING AT 7-8 WK OF AGE AND CONTINUING FOR STUDY DURATION (STUDY DURATION: LIFE S, Dose: 0, 18.8, 190 MG/D IN DRINKING WATER BEGINNING AT 7-8 WK OF AGE AND CONTINUING FOR STUDY DURATION (STUDY DURATION: LIFE S): inactive; negative
- carcinogen call (Species: RAT, Strain/Sex: F344/FEMALE, Route: ORAL, Dose: 0, 150 MG/L IN DRINKING WATER 5D/WK FOR 106 WK FOR A TOTAL DOSE OF 0, 1600 MG (STUDY DURATION: 131 WK), Dose: 0, 150 MG/L IN DRINKING WATER 5D/WK FOR 106 WK FOR A TOTAL DOSE OF 0, 1600 MG (STUDY DURATION: 131 WK)): inactive; negative
- carcinogen call (Species: RAT, Strain/Sex: F344/MALE, Route: ORAL, Dose: 0, 150 MG/L IN DRINKING WATER 5D/WK FOR 106 WK FOR A TOTAL DOSE OF 0, 1600 MG (STUDY DURATION: 131 WK), Dose: 0, 150 MG/L IN DRINKING WATER 5D/WK FOR 106 WK FOR A TOTAL DOSE OF 0, 1600 MG (STUDY DURATION: 131 WK)): inactive; negative
- carcinogen call (Species: RAT, Strain/Sex: SPRAGUE-DAWLEY/FEMALE, Route: GAVAGE, Dose: 0, 50, 500 MG/KG 2/WK FOR 1 YR (STUDY DURATION: LIFETIME), Dose: 0, 50, 500 MG/KG 2/WK FOR 1 YR (STUDY DURATION: LIFETIME)): inactive; negative
- carcinogen call (Species: RAT, Strain/Sex: SPRAGUE-DAWLEY/MALE, Route: GAVAGE, Dose: 0, 50, 500 MG/KG 2/WK FOR 1 YR (STUDY DURATION: LIFETIME), Dose: 0, 50, 500 MG/KG 2/WK FOR 1 YR (STUDY DURATION: LIFETIME)): inactive; negative

Structure (SMILES): O/N=c1\ccn(O)c2ccccc12
- carcinogen call (Species: MOUSE, Strain/Sex: DDD/FEMALE, Route: SUBCUTANEOUS, Dose: 53 NMOL IN 0.1 ML OLIVE OIL WITHIN 24 HR AFTER BIRTH (STUDY DURATION: 400 D), Tumor Site: Type of Lesion: LUNG: ADENOMA, INJECTION SITE: SARCOMA, HEMATOPOIETIC SYSTEM: LEUKEMIA OR LYMPHOSARCOMA, Tumor Site: Type of Lesion: LUNG: ADENOMA, INJECTION SITE: SARCOMA, HEMATOPOIETIC SYSTEM: LEUKEMIA OR LYMPHOSARCOMA): active; positive
- carcinogen call (Species: RAT, Strain/Sex: BUFFALO/FEMALE, Route: GAVAGE, Dose: 1 MG/0.1 ML OR 2 MG/0.2 ML IN 60% ETHANOL SOLUTION 1/3 WK (TOTAL DOSE: 30 MG) (STUDY DURATION: 610 D), Tumor Site: Type of Lesion: GLANDULAR STOMACH: MUCOSAL CARCINOMA, MAMMARY GLAND: TUMOR, THYMUS GLAND: THYMOMA, Tumor Site: Type of Lesion: GLANDULAR STOMACH: MUCOSAL CARCINOMA, MAMMARY GLAND: TUMOR, THYMUS GLAND: THYMOMA): active; positive

Structure (SMILES): O=NN(c1ccccc1)c1ccccc1
- carcinogen call (Species: MOUSE, Strain/Sex: B6C3F1/FEMALE, Route: ORAL, Dose: 0, 2315, 5741 PPM IN DIET, TWA, Dose: 0, 2315, 5741 PPM IN DIET, TWA): inactive; negative
- carcinogen call (Species: MOUSE, Strain/Sex: B6C3F1/MALE, Route: ORAL, Dose: 0, 10000, 20000 PPM IN DIET, Dose: 0, 10000, 20000 PPM IN DIET): inactive; negative
- carcinogen call (Species: RAT, Strain/Sex: F344/FEMALE, Route: ORAL, Dose: 0, 1000, 4000 PPM IN DIET, Dose: 0, 1000, 4000 PPM IN DIET, Tumor Site: Type of Lesion: URINARY BLADDER: TRANSITIONAL CELL CARCINOMA): active; positive
- carcinogen call (Species: RAT, Strain/Sex: F344/MALE, Route: ORAL, Dose: 0, 1000, 4000 PPM IN DIET, Dose: 0, 1000, 4000 PPM IN DIET, Tumor Site: Type of Lesion: INTEGUMENTARY SYSTEM: FIBROMA, URINARY BLADDER: TRANSITIONAL CELL CARCINOMA): active; positive

Structure (SMILES): Nc1ccc2nc3ccccn3c2n1
- carcinogen call (Species: MOUSE, Strain/Sex: CDF1/FEMALE, Route: ORAL, Dose: 0, 0.05% IN DIET FOR UP TO 685 D (STUDY DURATION: 685 D), Tumor Site: Type of Lesion: LIVER: HEPATOCELLULAR ADENOMA OR CARCINOMA, BLOOD VESSELS: HEMANGIOENDOTHELIOMA OR HEMANGIOENDOTHELIAL SARCOMA): active; positive
- carcinogen call (Species: MOUSE, Strain/Sex: CDF1/MALE, Route: ORAL, Dose: 0, 0.05% IN DIET FOR UP TO 685 D (STUDY DURATION: 685 D), Tumor Site: Type of Lesion: LIVER: HEPATOCELLULAR ADENOMA OR CARCINOMA, BLOOD VESSELS: HEMANGIOENDOTHELIOMA OR HEMANGIOENDOTHELIAL SARCOMA): active; positive
- carcinogen call (Species: RAT, Strain/Sex: F344/FEMALE, Route: ORAL, Dose: 0, 500 PPM IN DIET (AV DAILY DOSE: 4.9 MG) FOR 24 MO (STUDY DURATION: 104 WK), Tumor Site: Type of Lesion: SMALL INTESTINE: ADENOMA OR ADENOCARCINOMA OR MUCINOUS CARCINOMA, LARGE INTESTINE: ADENOMA OR ADENOCARCINOMA OR MUCINOUS): active; positive
- carcinogen call (Species: RAT, Strain/Sex: F344/MALE, Route: ORAL, Dose: 0, 500 PPM IN DIET (AV DAILY DOSE: 7.5 MG) FOR 24 MO (STUDY DURATION: 104 WK), Tumor Site: Type of Lesion: LIVER: HEPATOCELLULAR CARCINOMA OR ANAPLASTIC HEPATOMA, SMALL INTESTINE: ADENOMA OR ADENOCARCINOMA OR MUCINOUS CARCINOMA): active; positive

Structure (SMILES): O=[N+]([O-])c1ccc2c(c1)Cc1ccccc1-2
- carcinogen call (Species: RAT, Strain/Sex: WISTAR/MALE, Route: ORAL, Dose: 0, 0.24, 0.95, 2.37 MMOL/KG DIET FOR 11 MO FOLLOWED BY BASAL DIET FOR 13 MO (STUDY DURATION: 24 MO), Dose: 0, 0.24, 0.95, 2.37 MMOL/KG DIET FOR 11 MO FOLLOWED BY BASAL DIET FOR 13 MO (STUDY DURATION: 24 MO), Tumor Site: Type of Lesion: LIVER: HEPATOCELLULAR CARCINOMA, FORESTOMACH: SQUAMOUS CELL CARCINOMA, KIDNEY: CARCINOMA, Tumor Site: Type of Lesion: LIVER: HEPATOCELLULAR CARCINOMA, FORESTOMACH: SQUAMOUS CELL CARCINOMA, KIDNEY: CARCINOMA): active; positive

Structure (SMILES): CC(=O)O[C@]1(C(C)=O)CC[C@H]2[C@@H]3C=C(C)C4=CC(=O)CC[C@]4(C)[C@H]3CC[C@@]21C
- carcinogen call (Species: DOG, Route: ORAL, Tumor Site: Type of Lesion: MAMMARY GLAND): active; positive
